Laboratory results from ChEMBL document CHEMBL1141161, “Structure of aldehyde reductase holoenzyme in complex with the potent aldose reductase inhibitor fidarestat: implications for inhibitor binding and selectivity” (J Med Chem, 2005).

Target: T1, Aldo-keto reductase family 1 member A1 (Sus scrofa, UniProt P50578)
T1 sequence (P50578 whole entry): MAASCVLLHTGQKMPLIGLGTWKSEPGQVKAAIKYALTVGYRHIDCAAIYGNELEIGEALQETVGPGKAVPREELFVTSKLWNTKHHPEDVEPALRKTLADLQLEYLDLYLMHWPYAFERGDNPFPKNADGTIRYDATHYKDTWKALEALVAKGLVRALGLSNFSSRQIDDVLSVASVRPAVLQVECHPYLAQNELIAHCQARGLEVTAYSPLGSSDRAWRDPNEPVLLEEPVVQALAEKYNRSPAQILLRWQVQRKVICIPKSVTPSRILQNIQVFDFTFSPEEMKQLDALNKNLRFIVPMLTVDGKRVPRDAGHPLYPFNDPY
Experiment: Inhibitory concentration against porcine ALR1 Aldehyde reductase using DL-glyceraldehyde

| IC50 [µM] | SMILES |
| --- | --- |
| 2.5 | NC(=O)[C@@H]1C[C@]2(NC(=O)NC2=O)c2cc(F)ccc2O1 |
| 17.8 | NC(=O)[C@H]1C[C@]2(NC(=O)NC2=O)c2cc(F)ccc2O1 |
